Results on 18 compounds are retold here after patent US7268136B2, “Compositions useful as inhibitors of protein kinases” (Vertex Pharmaceuticals Incorporated, priority 2002, dated 2007).

What all share (format): biochemical
One assay concerns the target PIM-1 (Homo sapiens, UniProt P11309). Nature of the assay: Inhibition of PIM-1, standard coupled enzyme assay. The method, then:
Reactions were carried out in 100 mM HEPES pH 7.5, 10 mM MgCl2, 25 mM NaCl, 1 mM DTT, 20 μg/ml BSA and 1.5% DMSO. […] Assays were carried out at 30° C. and 50 nM PIM-1.
An assay stock buffer solution was prepared containing all of the reagents listed above, with the exception of PIM-1, DTT, BSA and the test compound of interest. 56 μl of the test reaction was placed in a 384 well plate followed by addition of 1 μl of 2 mM DMSO stock containing the test compound (final compound concentration 30 μM). The plate was preincubated for ˜10 minutes at 30° C. and the reaction initiated by addition of 10 μl of enzyme in DTT and BSA (final concentrations: 50 nM PIM-1, 1 mM DTT, and 20 μg/ml BSA). Rates of reaction were obtained using a BioRad Ultramark plate reader (Hercules, Calif.) over a 5 minute read time at 30° C.

Another assay concerns the target T1, GSK-3β (AA 1-420) (Homo sapiens, UniProt P49841).
T1 construct: GSK-3β (AA 1-420)
Nature of the assay: Inhibition of GSK-3, standard coupled enzyme system. The conditions noted are these: 20 μM ATP, 300 μM peptide, 20 nM GSK-3β, 30° C. The protocol: Compounds were screened for their ability to inhibit GSK-3β (AA 1-420) activity using a standard coupled enzyme system (Fox et al. (1998) Protein Sci. 7, 2249). Reactions were carried out in a solution containing 100 mM HEPES (pH 7.5), 10 mM MgCl2, 25 mM NaCl, 300 μM NADH, 1 mM DTT and 1.5% DMSO. Final substrate concentrations in the assay were 20 μM ATP (Sigma Chemicals, St Louis, Mo.) and 300 μM peptide (American Peptide, Sunnyvale, Calif.). Reactions were carried out at 30° C. and 20 nM GSK-3β. Final concentrations of the components of the coupled enzyme system were 2.5 mM phosphoenolpyruvate, 300 μM NADH, 30 μg/ml pyruvate kinase and 10 μg/ml lactate dehydrogenase. An assay stock buffer solution was prepared containing all of the reagents listed above with the exception of ATP and the test compound of interest. The assay stock buffer solution (175 μl) was incubated in a 96 well plate with 5 μl of the test compound of interest at final concentrations spanning 0.002 μM to 30 μM at 30° C. for 10 min. Typically, a 12 point titration was conducted by preparing serial dilutions (from 10 mM compound stocks) with DMSO of the test compounds in daughter plates. The reaction was initiated by the addition of 20 μl of ATP (final concentration 20 μM). Rates of reaction were obtained using a Molecular Devices Spectramax plate reader (Sunnyvale, Calif.) over 10 min at 30° C. The Ki values were determined from the rate data as a function of inhibitor concentration.

The next assay concerns the target T2, human Src kinase (Homo sapiens, UniProt P12931).
T2 construct: full length recombinant human Src kinase (from Upstate Biotechnology, cat. no. 14-117); purchased Upstate Biotechnology 14-117; host or cells: baculo viral cells (baculovirus expression)
Nature of the assay: Inhibition of SRC, radioactivity-based assay or spectrophotometric assay. The conditions noted are these: full length recombinant human Src kinase, poly Glu-Tyr substrate; assay A or B not specified. The method, then:
The compounds are evaluated as inhibitors of human Src kinase using either a radioactivity-based assay or spectrophotometric assay.
Src Inhibition Assay A: Radioactivity-based Assay
The compounds are assayed as inhibitors of full length recombinant human Src kinase (from Upstate Biotechnology, cat. no. 14-117) expressed and purified from baculo viral cells. Src kinase activity is monitored by following the incorporation of ^33P from ATP into the tyrosine of a random poly Glu-Tyr polymer substrate of composition, Glu:Tyr=4:1 (Sigma, cat. no. P-0275). The following are the final concentrations of the assay components: 0.05 M HEPES, pH 7.6, 10 mM MgCl2, 2 mM DTT, 0.25 mg/ml BSA, 10 μM ATP (1-2 μCi ^33P-ATP per reaction), 5 mg/ml poly Glu-Tyr, and 1-2 units of recombinant human Src kinase. In a typical assay, all the reaction components with the exception of ATP are pre-mixed and aliquoted into assay plate wells. Inhibitors dissolved in DMSO are added to the wells to give a final DMSO concentration of 2.5%. The assay plate is incubated at 30° C. for 10 min before initiating the reaction with ^33P-ATP. After 20 min of reaction, the reactions are quenched with 150 μl of 10% trichloroacetic acid (TCA) containing 20 mM Na3PO4. The quenched samples are then transferred to a 96-well filter plate (Whatman, UNI-Filter GF/F Glass Fiber Filter, cat no. 7700-3310) installed on a filter plate vacuum manifold. Filter plates are washed four times with 10% TCA containing 20 mM Na3PO4 and then 4 times with methanol. 200 μl of scintillation fluid is then added to each well. The plates were sealed and the amount of radioactivity associated with the filters is quantified on a TopCount scintillation counter. The radioactivity incorporated is plotted as a function of the inhibitor concentration. The data is fitted to a competitive inhibition kinetics model to get the Ki for the compound.
Src Inhibition Assay B: Spectrophotometric Assay
The ADP produced from ATP by the human recombinant Src kinase-catalyzed phosphorylation of poly Glu-Tyr substrate is quantified using a coupled enzyme assay (Fox et al (1998) Protein Sci 7, 2249). In this assay one molecule of NADH is oxidised to NAD for every molecule of ADP produced in the kinase reaction. The disappearance of NADH is conveniently followed at 340 nm.
The following are the final concentrations of the assay components: 0.025 M HEPES, pH 7.6, 10 mM MgCl2, 2 mM DTT, 0.25 mg/ml poly Glu-Tyr, and 25 nM of recombinant human Src kinase. […]
In a typical assay, all the reaction components with the exception of ATP are pre-mixed and aliquoted into assay plate wells. […] The absorbance change at 340 nm with time, the rate of the reaction, is monitored on a molecular devices plate reader. […]

The target in another assay is CDK-2/Cyclin A (Homo sapiens, UniProt P24941). Nature of the assay: Inhibition of CDK-2, standard coupled enzyme assay. The conditions noted are these: 100 μM ATP, 100 μM peptide, 25 nM CDK-2/Cyclin A, 30° C. The protocol: Compounds were screened for their ability to inhibit CDK-2/Cyclin A using a standard coupled enzyme assay (Fox et al (1998) Protein Sci 7, 2249). Reactions were carried out in 100 mM HEPES pH 7.5, 10 mM MgCl2, 25 mM NaCl, 1 mM DTT and 1.5% DMSO. Final substrate concentrations in the assay were 100 μM ATP (Sigma chemicals) and 100 μM peptide (American Peptide, Sunnyvale, Calif.). Assays were carried out at 30° C. and 25 nM CDK-2/Cyclin A. Final concentrations of the components of the coupled enzyme system were 2.5 mM phosphoenolpyruvate, 350 μM NADH, 30 μg/ml pyruvate kinase and 10 μg/ml lactate dehydrogenase.
An assay stock buffer solution was prepared containing all of the reagents listed above, with the exception of CDK-2/Cyclin A, DTT and the test compound of interest. 56 μl of the test reaction was placed in a 384 well plate followed by addition of 1 μl of 2 mM DMSO stock containing the test compound (final compound concentration 30 μM). The plate was preincubated for ˜10 minutes at 30° C. and the reaction initiated by addition of 10 μl of enzyme (final concentration 25 nM). Rates of reaction were obtained using a BioRad Ultramark plate reader (Hercules, Calif.) over a 5 minute read time at 30° C. Ki values were determined according to standard methods.

T2 sequence (P12931 whole entry): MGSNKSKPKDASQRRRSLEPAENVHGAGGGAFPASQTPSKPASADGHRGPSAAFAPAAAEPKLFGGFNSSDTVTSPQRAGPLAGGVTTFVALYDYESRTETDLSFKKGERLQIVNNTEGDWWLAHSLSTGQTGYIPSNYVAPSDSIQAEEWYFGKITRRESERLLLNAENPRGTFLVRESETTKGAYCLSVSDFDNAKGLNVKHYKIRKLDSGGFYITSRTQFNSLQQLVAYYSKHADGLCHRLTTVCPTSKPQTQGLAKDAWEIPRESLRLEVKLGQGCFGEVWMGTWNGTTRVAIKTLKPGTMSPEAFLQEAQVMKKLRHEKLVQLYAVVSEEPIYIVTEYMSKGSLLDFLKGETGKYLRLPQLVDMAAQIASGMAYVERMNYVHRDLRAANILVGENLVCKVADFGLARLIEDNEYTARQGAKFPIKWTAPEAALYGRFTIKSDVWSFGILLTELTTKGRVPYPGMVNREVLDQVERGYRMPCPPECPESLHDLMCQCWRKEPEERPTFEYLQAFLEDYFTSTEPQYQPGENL
Chain of PIM-1 (P11309 whole entry): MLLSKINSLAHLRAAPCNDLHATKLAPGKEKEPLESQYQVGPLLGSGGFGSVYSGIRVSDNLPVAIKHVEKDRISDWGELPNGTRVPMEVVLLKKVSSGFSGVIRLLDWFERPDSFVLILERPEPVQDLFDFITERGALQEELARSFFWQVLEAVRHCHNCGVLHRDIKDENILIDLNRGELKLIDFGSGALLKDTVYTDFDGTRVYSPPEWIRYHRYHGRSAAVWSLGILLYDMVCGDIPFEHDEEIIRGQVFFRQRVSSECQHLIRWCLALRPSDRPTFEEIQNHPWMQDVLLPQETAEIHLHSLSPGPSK
T1 sequence (P49841 whole entry, the tested form may be a part): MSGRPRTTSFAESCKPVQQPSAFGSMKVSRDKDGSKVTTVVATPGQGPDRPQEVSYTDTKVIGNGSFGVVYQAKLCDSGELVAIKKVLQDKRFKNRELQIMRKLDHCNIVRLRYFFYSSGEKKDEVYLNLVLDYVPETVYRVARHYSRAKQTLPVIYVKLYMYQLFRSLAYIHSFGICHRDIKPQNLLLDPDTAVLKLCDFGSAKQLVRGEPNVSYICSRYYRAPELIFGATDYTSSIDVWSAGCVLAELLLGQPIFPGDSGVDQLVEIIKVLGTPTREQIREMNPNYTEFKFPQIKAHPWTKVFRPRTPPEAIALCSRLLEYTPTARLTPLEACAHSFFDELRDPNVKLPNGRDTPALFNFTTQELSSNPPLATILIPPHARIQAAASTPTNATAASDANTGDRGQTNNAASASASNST

As to `FC(F)(F)c1cccc(-c2nnc3ccc(NC4CC4)nn23)c1` [Compound I-18], the IC50 against PIM-1 was less than 1000 nM. Also, the inhibition constant (Ki) at GSK-3β (AA 1-420) is less than 2000 nM.

Consider `FC(F)(F)c1cccc(-c2nnc3ccc(NC4CCCCC4)nn23)c1` [Compound I-26], for which the Ki on human Src kinase is less than 5000 nM.

In turn, `COc1ccc(Nc2nnc3ccc(OC)nn23)cc1` [Compound I-66] displayed a Ki at GSK-3β (AA 1-420) of less than 2000 nM.

`COc1ccccc1Nc1nnc2ccc(Sc3ccccc3)nn12` [Compound I-62] registered a Ki on GSK-3β (AA 1-420) of less than 2000 nM.

On to `COc1ccc(-c2nnc3ccc(NC4CC4)nn23)cc1` [Compound I-24], for which, on PIM-1, the IC50 is less than 1000 nM.

On to `FC(F)(F)c1cccc(-c2nnc3ccc(NC4CCC4)nn23)c1` [Compound I-25], for which the IC50 on PIM-1 is less than 1000 nM. In addition, the inhibitory constant (Ki) at human Src kinase is less than 5000 nM.

As for `N#Cc1cccc(-c2nnc3ccc(NCC(N)=O)nn23)c1` [Compound I-40], the inhibition constant (Ki) at GSK-3β (AA 1-420) was less than 2000 nM.

Take `COc1ccc(-c2nnc3ccc(NCC(N)=O)nn23)cc1` [Compound I-38]: the inhibitory constant (Ki) on GSK-3β (AA 1-420) is less than 2000 nM.

For `Fc1ccc(-c2nnc3ccc(NC4CC4)nn23)cc1` [Compound I-21], on PIM-1, the IC50 is less than 1000 nM. On GSK-3β (AA 1-420), the inhibitory constant (Ki) was less than 2000 nM.

On CDK-2/Cyclin A, `COc1ccc2nnc(Nc3ccccc3OC)n2n1` [Compound I-68] showed a Ki of less than 2000 nM.

As to `COc1ccc2nnc(Nc3cc(OC)c(OC)c(OC)c3)n2n1` [Compound I-86], the Ki at GSK-3β (AA 1-420) is less than 2000 nM.

At PIM-1, `COc1cccc(-c2nnc3ccc(NC4CC4)nn23)c1` [Compound I-28] displayed an IC50 of less than 1000 nM. In addition, at human Src kinase, the inhibitory constant (Ki) is less than 5000 nM.

Turning to `COc1cccc(-c2nnc3ccc(NCC(N)=O)nn23)c1` [Compound I-39], the Ki at GSK-3β (AA 1-420) is less than 2000 nM.

Take `COc1ccc(Nc2nnc3ccc(OC)nn23)c(OC)c1` [Compound I-85]: the Ki on GSK-3β (AA 1-420) is less than 2000 nM.

`Fc1cccc(-c2nnc3ccc(NC4CC4)nn23)c1` [Compound I-20] displayed an IC50 at PIM-1 of less than 1000 nM.

For `COc1ccccc1-c1nnc2ccc(NC3CC3)nn12` [Compound I-29], the inhibition constant Ki on human Src kinase is less than 5000 nM.

In the case of `COc1ccc2nnc(Nc3ccc(C#N)cc3)n2n1` [Compound I-73], the Ki at CDK-2/Cyclin A was less than 2000 nM.

Compound `N#Cc1ccc(-c2nnc3ccc(NCC(N)=O)nn23)cc1` [Compound I-37] returned a Ki at GSK-3β (AA 1-420) of less than 2000 nM.
